# Read-outs that look alike come from different tables or passages of the source.
# Columns and labels:
# [1] = system: HCT116-MTAPdel; experiment: 2D anti-proliferation assay (CTG luminescence), MTAP-deficient HCT116 cells; format: cell-based; conditions: for IC50: Homo sapiens; for HCT116 WT/MTAPdel Selectivity: ratio of IC50 HCT116 WT / MTAPdel
# Description: (§1) HCT116 wild-type and MTAP-deficient cells were cultured in MCCOYS 5A medium containing 10% FBS and 1% penicillin-streptomycin and incubated in a 37°C, 5% CO2 incubator. A 40 µL cell suspension was added to each well of a 384-well microplate. Using Echo, 40 nL of the compound at different concentrations were added to each well, followed by incubation in a 37°C, 5% CO2 incubator for 7-10 days. 40 µL of CTG solution (Promega, Cat No. G7573) was added to each well and incubated away from light in a 37°C, 5% CO2 incubator for 30 minutes. Luminescence was measured using an Envision multimode plate reader (Perkin Elmer, Catalog No. Envision 2104). The luminescence signal was proportional to the ATP content in the system, and the ATP content directly reflected the number of viable cells in the system.
# [2] = system: HCT116-MTAPwt; experiment: 2D anti-proliferation assay (CTG luminescence), wild-type HCT116 cells; format: cell-based; conditions: Homo sapiens, HCT-116, 7-10 days incubation
# Description: By testing the activity of both of them, the inhibitory effect and selectivity of the molecules of the present invention for PRMT5 at the cellular level were shown.
# as §1
# ICso value calculation: [formula] • X: Log value of compound concentration • Y: Inhibition rate (%) Table 1: 2D Anti-proliferation Effects of Compounds on HTC116-MTAP del and Wild-type Colorectal Cancer HCT-116 Cell Lines.
# [3] = Caco-2 membrane permeability assay; format: in vitro ADME; conditions: human; for efflux ratio: Caco-2, Efflux Ratio = Papp (B-A)/Papp (A-B); for Papp A→B / Papp B→A: Caco-2, apical pH 6.5, basolateral pH 7.4
# Description: (§2) Evaluation of membrane permeability of the molecules of the present invention. Samples will be analyzed using LC-MS to estimate the apparent permeability coefficient (Papp) of the compound in Caco-2 monolayer cells, wherein the pH of the apical chamber is 6.5, and the pH of the basolateral chamber is 7.4. The P-gp efflux transporter, BCRP, and MRP2 inhibitors (50 µM quinidine, 30 µM benzbromarone, and 20 µM sulfasalazine) can block the active efflux transport of the compound. The data will be used for calculating apparent permeability (Papp). Papp = (VA×⌊drug⌋acceptor)/(Area×Time×⌊drug⌋initial,donor) [formula] wherein, VA is the volume of the receptor well (unit: mL), area is the membrane surface area (for Transwell-96 well permeable support, it is 0.143 cm^2), and time is the total transport time (unit: seconds). Efflux Ratio = Papp (B−A)/Papp (A−B) [formula]
# [4] = Liver microsomal stability, human; format: in vitro ADME; conditions: human liver microsomes 0.5 mg/mL, compound 1 µM, NADPH 1 mM, 60 minutes
# Description: Microsomal stability experiment of the compound. The details are as follows: A microsomal stability test was conducted on the compounds of the present invention. The test compounds were co-incubated with liver microsomes from different species, with or without the addition of NADPH. In the test system, the final concentration of the test compound was 1 µM, the final concentration of NADPH was 1 mM, and the final concentration of liver microsomes was 0.5 mg/mL.
# [5] = system: Caco-2 monolayer cells; experiment: Caco-2 membrane permeability assay; format: in vitro ADME; conditions: Caco-2, Efflux Ratio = Papp (B-A)/Papp (A-B)
# Description: as §2
# [6] = HCT-116, HCT116 MTAP-deficient cells, 7-10 days incubation, CTG, read-out: HCT116-MTAPdel/IC50/nM
# [7] = HCT-116, read-out: HCT116-MTAPdel/IC50/nM
smiles,measurement,setting,value
"CC(=O)N1CCC(Nc2cc(C(=O)NC[C@H](O)CN3CCc4ccccc4C3)ncn2)CC1 [GSK3326595, reference compound]",IC50,[1]; [6],17 nM
same,HCT116 WT/MTAPdel Selectivity,[1],4
same,IC50,[2],72 nM
Cc1c(CO)c(N)nc2cc(Cl)c(C(=O)N3[C@H](C)COC[C@@H]3c3ccc(C(F)(F)F)cn3)cc12 [Compound A2b],IC50,[1]; [6],4 nM
same,HCT116 WT/MTAPdel Selectivity,[1],100
same,IC50,[2],398 nM
C[C@H]1COC[C@@H](c2ccc(C(F)(F)F)cn2)N1C(=O)c1cc2cc(C3CC3)c(N)nc2cc1F [Compound P2],IC50,[1]; [6],93 nM
same,HCT116 WT/MTAPdel Selectivity,[1],>108
same,IC50,[2],> 10000 nM
CN(C(=O)c1ccc2nc(N)c(C3CC3)cc2c1)C1COc2cc(OC(F)(F)F)ccc21 (stereo not shown) [Compound H2],IC50,[1]; [6],6290 nM
same,HCT116 WT/MTAPdel Selectivity,[1],>1
same,IC50,[2],> 10000 nM
Cc1c(CO)c(N)nc2cc(F)c(C(=O)N(C)C3COCc4nc(C(F)(F)F)ccc43)cc12 (racemic) [Compound A10],efflux ratio,[3],3.8
same,Papp A→B,[3],8.1 ×10⁻⁶ cm/s
same,Papp B→A,[3],31 ×10⁻⁶ cm/s
same,CLint scaled at 1 µM,[4],11.1 mL/min/kg
same,IC50,[1]; [6],18 nM
same,HCT116 WT/MTAPdel Selectivity,[1],>556
same,IC50,[2],> 10000 nM
Cc1c(CO)c(N)nc2cc(F)c(C(=O)N(C)C3COc4cc(C(F)(F)F)ccc43)cc12 (racemic) [Compound A9],efflux ratio,[3],1.2
same,Papp A→B,[3],5.1 ×10⁻⁶ cm/s
same,Papp B→A,[3],5.9 ×10⁻⁶ cm/s
same,Efflux,[5],< 2
same,CLint scaled at 1 µM,[4],3.6 mL/min/kg
same,IC50,[1]; [6],27 nM
same,HCT116 WT/MTAPdel Selectivity,[1],174
same,IC50,[2],4700 nM
CN(C(=O)c1ccc2nc(N)c(C3CC3)cc2c1)C1COc2cc(-c3cnn(C(F)(F)F)c3)ccc21 (stereo not shown) [Compound H5],IC50,[1]; [6],2960 nM
same,HCT116 WT/MTAPdel Selectivity,[1],3
same,IC50,[2],8020 nM
Cc1c(C2CC2)c(N)nc2cc(F)c(C(=O)N3[C@@H](C)COC[C@H]3c3ccc(-c4cncc(Cl)c4)cn3)cc12 [Compound P9],IC50,[1]; [6],16 nM
same,HCT116 WT/MTAPdel Selectivity,[1],59
same,IC50,[2],936 nM
CC(C)N1CCN(c2ccc([C@@H]3COC[C@H](C)N3C(=O)c3cc4cc(C5CC5)c(N)nc4cc3F)cc2)CC1 [Compound P5],IC50,[1]; [6],612 nM
same,HCT116 WT/MTAPdel Selectivity,[1],>16
same,IC50,[2],> 10000 nM
Cc1c(CO)c(N)nc2cc(F)c(C(=O)N3CC(C)CCC3c3ccc4ncsc4c3)cc12 (racemic) [Compound A8],IC50,[1]; [6],150 nM
same,HCT116 WT/MTAPdel Selectivity,[1],13
same,IC50,[2],2000 nM
CN(C(=O)c1ccc2nc(N)c(C3CC3)cc2c1)C1COc2cc(-c3cnn(C)c3)ccc21 (racemic) [Compound H4],IC50,[1]; [6],4350 nM
same,HCT116 WT/MTAPdel Selectivity,[1],>3
same,IC50,[2],> 10000 nM
Cc1c(C2CC2)c(N)nc2cc(Cl)c(C(=O)N(C)C3COCc4nc(C(F)(F)F)ccc43)cc12 (stereo not shown) [Compound H7],IC50,[1]; [6],29 nM
same,HCT116 WT/MTAPdel Selectivity,[1],38
same,IC50,[2],1110 nM
Cc1c(CO)c(N)nc2cc(F)c(C(=O)N(C)[C@H]3COCc4nc(-c5cncc(Cl)c5)ccc43)cc12 (racemic) [Compound A11],IC50,[1]; [6],26 nM
same,HCT116 WT/MTAPdel Selectivity,[1],168
same,IC50,[2],4380 nM
Cc1c(C2CC2)c(N)nc2cc(F)c(C(=O)N(C)C3COCc4nc(C(F)(F)F)ccc43)cc12 (stereo not shown) [Compound H6],IC50,[1]; [6],33 nM
same,HCT116 WT/MTAPdel Selectivity,[1],16
same,IC50,[2],532 nM
Cc1c(C2CC2)c(N)nc2cc(F)c(C(=O)N3[C@@H](C)COC[C@H]3c3ccc(-c4cncc(C(F)(F)F)c4)cn3)cc12 [Compound P10],IC50,[1]; [6],34 nM
same,HCT116 WT/MTAPdel Selectivity,[1],55
same,IC50,[2],1860 nM
Cc1c(CO)c(N)nc2cc(Cl)c(C(=O)N3[C@@H](C)COC[C@H]3c3ccc(C(F)(F)F)cn3)cc12 [Compound A2a],IC50,[1]; [6],3030 nM
same,HCT116 WT/MTAPdel Selectivity,[1],>3
same,IC50,[2],> 10000 nM
Cc1c(CO)c(N)nc2cc(F)c(C(=O)N3CC(C)CCC3c3ccc4scnc4c3)cc12 (racemic) [Compound A7],IC50,[1]; [6],88 nM
same,HCT116 WT/MTAPdel Selectivity,[1],44
same,IC50,[2],3880 nM
Cc1c(C2CC2)c(N)nc2cc(Cl)c(C(=O)N3[C@@H](C)COC[C@H]3c3ccc(C(F)(F)F)cn3)cc12 [Compound P7b],IC50,[1]; [6],2540 nM
same,HCT116 WT/MTAPdel Selectivity,[1],2
same,IC50,[2],3800 nM
CN(C(=O)c1ccc2nc(N)c(C3CC3)cc2c1)C1COCc2nc(C(F)(F)F)ccc21 (stereo not shown) [Compound H3],IC50,[1]; [6],926 nM
same,HCT116 WT/MTAPdel Selectivity,[1],>11
same,IC50,[2],> 10000 nM
Cc1c(CO)c(N)nc2cc(F)c(C(=O)N(C)[C@H]3COCc4nc(-c5cncc(C(F)(F)F)c5)ccc43)cc12 (racemic) [Compound A13],IC50,[1]; [6],32 nM
same,HCT116 WT/MTAPdel Selectivity,[1],117
same,IC50,[2],3750 nM
Cc1c(CO)c(N)nc2cc(F)c(C(=O)N(C)[C@H]3COCc4nc(-c5cncc(F)c5)ccc43)cc12 (racemic) [Compound A12],IC50,[1]; [6],36 nM
same,HCT116 WT/MTAPdel Selectivity,[1],90
same,IC50,[2],3250 nM
CN(C(=O)c1ccc2nc(N)c(C3CC3)cc2c1)C1COc2cc(C(F)(F)F)ccc21 (racemic) [Compound H1],IC50,[1]; [6],4250 nM
same,HCT116 WT/MTAPdel Selectivity,[1],>2
same,IC50,[2],> 10000 nM
Cc1c(CO)c(N)nc2cc(F)c(C(=O)N3C(C)COCC3c3ccc(C(F)(F)F)cc3)cc12 (racemic) [Compound A6],IC50,[1]; [6],7 nM
same,HCT116 WT/MTAPdel Selectivity,[1],145
same,IC50,[2],1020 nM
Cc1c(C2CC2)c(N)nc2cc(Cl)c(C(=O)N3[C@H](C)COC[C@@H]3c3ccc(C(F)(F)F)cn3)cc12 [Compound P7a],IC50,[1]; [6],230 nM
same,HCT116 WT/MTAPdel Selectivity,[1],7
same,IC50,[2],1640 nM
C[C@H]1COC[C@@H](c2ccc(OC(F)(F)F)cc2)N1C(=O)c1cc2cc(C3CC3)c(N)nc2cc1Cl [Compound P6],IC50,[1]; [6],156 nM
C[C@H]1COC[C@@H](c2ccc(C(F)(F)F)cn2)N1C(=O)c1ccc2nc(N)c(C3CC3)cc2c1 [Compound P4],IC50,[1]; [6],790 nM
same,HCT116 WT/MTAPdel Selectivity,[1],>13
same,IC50,[2],> 10000 nM
"Cc1cc2cc(C(=O)N(Cc3ccc(C(F)(F)F)cn3)[C@H](C)c3ncccn3)ccc2nc1N [AM9747, reference compound]",IC50,[1]; [7],7 nM
same,IC50,[2],237 nM
Cc1c(CO)c(N)nc2cc(F)c(C(=O)N3C(C)COCC3c3ccc(OC(F)(F)F)cc3)cc12 (racemic) [Compound A5],IC50,[1]; [6],18 nM
same,HCT116 WT/MTAPdel Selectivity,[1],75
same,IC50,[2],1360 nM
C[C@H]1COC[C@@H](c2ccc(OC(F)F)nn2)N1C(=O)c1cc2cc(C3CC3)c(N)nc2cc1F [Compound P8],IC50,[1]; [6],96 nM
same,HCT116 WT/MTAPdel Selectivity,[1],>104
same,IC50,[2],> 10000 nM
"Cc1cc(NC(=O)C(=O)N2C[C@@H](C)CC[C@@H]2c2ccc3scnc3c2)cnc1N [TNG908, reference compound]",selectivity,[1]; HCT116 WT vs MTAP-deleted,23 fold
same,IC50,[1]; [7],54 nM
same,HCT116 WT/MTAPdel Selectivity,[1],23
same,IC50,[2],1230 nM
Cc1c(CO)c(N)nc2cc(F)c(C(=O)N3C(C)COCC3c3ccc(-c4cncc(F)c4)cn3)cc12 (racemic) [Compound A3],IC50,[1]; [6],5 nM
same,HCT116 WT/MTAPdel Selectivity,[1],291
same,IC50,[2],1450 nM
Cc1c(CO)c(N)nc2cc(F)c(C(=O)N3C(C)COCC3c3ccc(-c4cncc(Cl)c4)cn3)cc12 (racemic) [Compound A4],IC50,[1]; [6],7 nM
same,HCT116 WT/MTAPdel Selectivity,[1],164
same,IC50,[2],1140 nM
Nc1nc2cc(F)c(C(=O)N3CCOCC3c3ccc(C(F)(F)F)cn3)cc2cc1C1CC1 (stereo not shown) [Compound P3],IC50,[1]; [6],2870 nM
same,HCT116 WT/MTAPdel Selectivity,[1],>4
same,IC50,[2],> 10000 nM
